Usually IC50 stands for the concentration that gives 50% inhibition. The Ki is the equilibrium dissociation constant of an inhibitor or competing ligand from its target.

Test [1] in a line: DRUGMATRIX: GABAA, Muscimol, Central radioligand binding (ligand: [3H] Muscimol). The format is cell membranes, Rattus norvegicus, Wistar, Brain, Membrane. The note with it: Not Active = under 50% inhibition at 10 µM.
In test [2] the target is Epidermal growth factor receptor (Homo sapiens, UniProt P00533). Nature of the test: DRUGMATRIX: Protein Tyrosine Kinase, EGF Receptor enzyme inhibition (substrate: Poly(Glu:Tyr)). The format is cell-based, Insect cells. The note with it: Not Active = under 50% inhibition at 10 µM.
A further test has as its target Substance-P receptor (Homo sapiens, UniProt P25103). Format: cell membranes, Membrane. The note with it: cho. Note: in other assays of this panel Not Active means under 50% inhibition at 10 µM.
The target in test [3] is Sigma non-opioid intracellular receptor 1 (Homo sapiens, UniProt Q99720). The experiment in a line: DRUGMATRIX: Sigma1 radioligand binding (ligand: [3H] Haloperidol). Format: cell membranes, Jurkat, Membrane. The following applies: Not Active = under 50% inhibition at 10 µM; for Ki: read-out: Ki.
The target in test [4] is Beta-3 adrenergic receptor (Homo sapiens, UniProt P13945). The experiment in a line: DRUGMATRIX: Adrenergic beta3 radioligand binding (ligand: [125I] Cyanopindolol). The following applies: Not Active = under 50% inhibition at 10 µM. The format is cell membranes, HEK293, Membrane.
The target of test [5] is T1, Alpha-1D adrenergic receptor (Homo sapiens, UniProt P25100). Note: in other assays of this panel Not Active means under 50% inhibition at 10 µM.
T1 sequence (P25100 whole entry): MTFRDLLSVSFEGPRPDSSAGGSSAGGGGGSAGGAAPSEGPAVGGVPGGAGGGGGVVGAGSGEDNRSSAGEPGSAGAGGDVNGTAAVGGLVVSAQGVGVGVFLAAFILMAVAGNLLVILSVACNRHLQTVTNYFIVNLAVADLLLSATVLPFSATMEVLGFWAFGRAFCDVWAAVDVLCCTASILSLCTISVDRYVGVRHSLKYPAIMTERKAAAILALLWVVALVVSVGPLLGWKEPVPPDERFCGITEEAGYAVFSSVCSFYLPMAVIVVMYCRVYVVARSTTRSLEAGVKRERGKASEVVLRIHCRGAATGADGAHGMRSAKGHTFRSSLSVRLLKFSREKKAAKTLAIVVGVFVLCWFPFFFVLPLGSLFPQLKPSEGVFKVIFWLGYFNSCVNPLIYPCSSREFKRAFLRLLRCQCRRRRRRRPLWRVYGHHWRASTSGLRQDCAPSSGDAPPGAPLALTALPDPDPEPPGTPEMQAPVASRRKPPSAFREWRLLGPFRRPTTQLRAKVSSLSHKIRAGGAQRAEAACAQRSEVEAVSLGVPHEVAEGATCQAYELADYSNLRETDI
The format is cell membranes, HEK293, Membrane. The following applies: for Ki: read-out: Ki.

Chain of Sigma non-opioid intracellular receptor 1 (Q99720 whole entry): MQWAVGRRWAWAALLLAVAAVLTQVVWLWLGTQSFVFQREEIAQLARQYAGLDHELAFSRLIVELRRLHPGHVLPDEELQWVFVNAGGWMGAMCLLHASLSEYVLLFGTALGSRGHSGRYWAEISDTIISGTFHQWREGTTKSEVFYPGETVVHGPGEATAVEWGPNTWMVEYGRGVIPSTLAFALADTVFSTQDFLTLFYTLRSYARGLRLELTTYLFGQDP
Chain of Epidermal growth factor receptor (P00533 whole entry): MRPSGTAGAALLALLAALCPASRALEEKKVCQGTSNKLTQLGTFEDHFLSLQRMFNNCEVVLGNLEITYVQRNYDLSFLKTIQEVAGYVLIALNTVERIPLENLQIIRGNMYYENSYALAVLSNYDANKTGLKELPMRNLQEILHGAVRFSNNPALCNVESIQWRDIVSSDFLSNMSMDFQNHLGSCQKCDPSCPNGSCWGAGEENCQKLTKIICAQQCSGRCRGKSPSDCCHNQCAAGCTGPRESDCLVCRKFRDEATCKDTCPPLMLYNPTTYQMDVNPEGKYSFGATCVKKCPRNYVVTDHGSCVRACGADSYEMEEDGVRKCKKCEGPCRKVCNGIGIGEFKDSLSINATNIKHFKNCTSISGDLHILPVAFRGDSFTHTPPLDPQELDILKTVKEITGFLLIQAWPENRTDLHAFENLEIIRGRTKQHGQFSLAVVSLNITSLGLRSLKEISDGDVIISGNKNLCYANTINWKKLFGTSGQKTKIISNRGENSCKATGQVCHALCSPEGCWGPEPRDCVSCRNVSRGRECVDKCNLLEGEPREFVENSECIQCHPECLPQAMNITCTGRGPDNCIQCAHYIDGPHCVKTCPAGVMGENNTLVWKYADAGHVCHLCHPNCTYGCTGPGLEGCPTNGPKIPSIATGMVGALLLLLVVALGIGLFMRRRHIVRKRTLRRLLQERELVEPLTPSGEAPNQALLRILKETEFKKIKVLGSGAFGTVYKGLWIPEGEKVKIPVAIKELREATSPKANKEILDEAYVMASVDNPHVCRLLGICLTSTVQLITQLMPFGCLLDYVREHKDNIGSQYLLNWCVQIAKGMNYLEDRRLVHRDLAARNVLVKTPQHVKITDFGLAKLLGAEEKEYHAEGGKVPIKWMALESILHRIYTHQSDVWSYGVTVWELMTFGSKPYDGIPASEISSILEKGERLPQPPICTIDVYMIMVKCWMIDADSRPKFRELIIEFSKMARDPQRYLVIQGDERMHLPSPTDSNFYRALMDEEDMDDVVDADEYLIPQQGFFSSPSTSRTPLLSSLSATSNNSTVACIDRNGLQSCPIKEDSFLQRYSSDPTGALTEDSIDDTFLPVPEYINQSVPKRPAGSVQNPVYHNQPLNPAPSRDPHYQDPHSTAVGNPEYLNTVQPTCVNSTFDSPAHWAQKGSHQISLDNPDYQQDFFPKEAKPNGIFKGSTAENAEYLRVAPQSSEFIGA
Chain of Beta-3 adrenergic receptor (P13945 whole entry): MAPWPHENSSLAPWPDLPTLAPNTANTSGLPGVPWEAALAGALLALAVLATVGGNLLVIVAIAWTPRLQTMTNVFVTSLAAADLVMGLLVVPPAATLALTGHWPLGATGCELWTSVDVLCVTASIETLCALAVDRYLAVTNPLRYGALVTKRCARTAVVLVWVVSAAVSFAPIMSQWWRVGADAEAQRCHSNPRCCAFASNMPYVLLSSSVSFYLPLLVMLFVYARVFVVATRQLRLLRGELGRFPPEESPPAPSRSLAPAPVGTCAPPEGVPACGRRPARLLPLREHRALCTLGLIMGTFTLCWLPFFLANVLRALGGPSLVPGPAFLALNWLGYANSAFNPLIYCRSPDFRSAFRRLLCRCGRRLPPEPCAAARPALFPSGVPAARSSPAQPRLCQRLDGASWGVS
Chain of Substance-P receptor (P25103 whole entry): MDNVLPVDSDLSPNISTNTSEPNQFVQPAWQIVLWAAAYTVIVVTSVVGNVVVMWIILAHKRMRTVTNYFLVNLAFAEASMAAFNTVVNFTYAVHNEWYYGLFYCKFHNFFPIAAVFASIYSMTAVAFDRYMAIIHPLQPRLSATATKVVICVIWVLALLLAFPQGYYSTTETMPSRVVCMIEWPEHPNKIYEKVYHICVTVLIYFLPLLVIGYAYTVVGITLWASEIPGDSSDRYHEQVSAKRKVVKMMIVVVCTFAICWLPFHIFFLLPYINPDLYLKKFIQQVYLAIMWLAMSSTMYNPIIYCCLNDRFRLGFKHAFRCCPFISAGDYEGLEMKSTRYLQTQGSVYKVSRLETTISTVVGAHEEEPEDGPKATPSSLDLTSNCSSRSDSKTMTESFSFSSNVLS

With `CC[C@H](C)[C@@H](CO[C@@H](Cc1ccccc1)C(=O)N[C@@H](CCS(C)(=O)=O)C(=O)OC(C)C)NC[C@@H](N)CS`, the IC50 entry in test [1] is “Not Active”; in test [2] (read-out: IC50) it was 3220 nM; on Substance-P receptor, “Not Active”; in test [3] (jurkat), “Not Active”; in test [4] (hek293), “Not Active”; in test [5] (hek293), “Not Active”. Besides, the Ki result in test [1] is given as “Not Active”.
For `Nc1nc(N)c2nc(-c3ccccc3)c(N)nc2n1`, the IC50 entry (in test [1]; in test [2] (insect cells); against Substance-P receptor; in test [3] (jurkat); in test [4] (hek293); in test [5] (hek293)) was “Not Active” throughout. Also, in test [1], the Ki entry is given as “Not Active”.
`CCN(CC)C(=S)SSC(=S)N(CC)CC`: the IC50 result (in test [1]; in test [2] (insect cells); on Substance-P receptor; in test [3] (jurkat); in test [4] (hek293); in test [5] (hek293)) was “Not Active” each time. In test [1], the Ki entry is “Not Active”.
As to `CN(C)CCC=C1c2ccccc2COc2ccccc21` [DOXEPIN], the IC50 result is “Not Active” in test [2] (insect cells); “Not Active” on Substance-P receptor; 631 nM in test [3] (read-out: IC50); “Not Active” in test [4] (hek293); 118 nM in test [5] (read-out: IC50). Moreover, the Ki in test [3] was 265 nM; in test [5] it was 58 nM.
Take `O=C(c1ccccc1)c1ccc2n1CCC2C(=O)O` (stereo not given) [KETOROLAC]: the IC50 entry (in test [1]; in test [2] (insect cells); on Substance-P receptor; in test [3] (jurkat); in test [4] (hek293); in test [5] (hek293)) was “Not Active” in each case. Further, the Ki entry in test [1] is “Not Active”.
In the case of `CCOC(=O)C1=C(C)NC(C)=C(C(=O)OCC)C1c1ccccc1/C=C/C(=O)OC(C)(C)C` [LACIDIPINE], the IC50 entry (in test [1]; in test [2] (insect cells); against Substance-P receptor; in test [3] (jurkat); in test [4] (hek293); in test [5] (hek293)) was “Not Active” each time. Besides, in test [1], the Ki entry is “Not Active”.
As to `CC(O)C(=O)O` (stereo not given) [LACTIC ACID], the IC50 entry (in test [1]; in test [2] (insect cells); against Substance-P receptor; in test [3] (jurkat); in test [4] (hek293); in test [5] (hek293)) was “Not Active” in each case. For the same compound, the Ki result in test [1] is “Not Active”.
As for `CC(C)(C)NC[C@H](O)COc1cccc2c1CCCC2=O` [LEVOBUNOLOL], the IC50 entry in test [1] is “Not Active”; in test [2] (insect cells), “Not Active”; at Substance-P receptor, “Not Active”; in test [3] (read-out: IC50) it was 773 nM; in test [4] (read-out: IC50), 340 nM; in test [5] (hek293) it was “Not Active”. For the same compound, the inhibition constant Ki entry in test [1] is “Not Active”; in test [3], 325 nM; in test [4] (read-out: Ki), 255 nM.
Turning to `CO[C@@H]1[C@@H](OC)[C@H](C)[C@@](O)(CC(=O)O)O[C@H]1[C@H](C)[C@H]1O[C@@]2(CC[C@@](C)([C@H]3CC[C@@](C)([C@@H]4O[C@@H]([C@H]5O[C@](C)(O)[C@H](C)C[C@@H]5C)C[C@@H]4O[C@@H]4C[C@H](OC)[C@@H](OC)[C@H](C)O4)O3)O2)C[C@H](O)[C@H]1C.N` [MADURAMICIN], the IC50 result (in test [1]; in test [2] (insect cells); on Substance-P receptor; in test [3] (jurkat); in test [4] (hek293); in test [5] (hek293)) was “Not Active” throughout. Further, the Ki entry in test [1] is listed as “Not Active”.
For `OC[C@@H](O)[C@@H](O)[C@H](O)[C@H](O)CO` [MANNITOL], the 50% inhibitory concentration (IC50) entry (in test [1]; in test [2] (insect cells); at Substance-P receptor; in test [3] (jurkat); in test [4] (hek293); in test [5] (hek293)) was “Not Active” each time. For the same compound, the inhibition constant Ki result in test [1] is “Not Active”.
On to `CNCCCC12CCC(c3ccccc31)c1ccccc12` [MAPROTILINE], for which the IC50 result in test [2] (insect cells) is “Not Active”; against Substance-P receptor, “Not Active”; in test [3] (jurkat) it was “Not Active”; in test [4] (hek293) it was “Not Active”; in test [5] (read-out: IC50), 397 nM. Moreover, the Ki in test [5] was 195 nM.
As for `COC(=O)Nc1nc2ccc(C(=O)c3ccccc3)cc2[nH]1` [MEBENDAZOLE], the IC50 result (in test [1]; on Substance-P receptor; in test [3] (jurkat); in test [4] (hek293); in test [5] (hek293)) was “Not Active” throughout. The inhibition constant Ki result in test [1] is “Not Active”.
For `Cc1ccc(Cl)c(Nc2ccccc2C(=O)O)c1Cl` [MECLOFENAMIC ACID], the IC50 result (in test [1]; in test [2] (insect cells); against Substance-P receptor; in test [3] (jurkat); in test [4] (hek293); in test [5] (hek293)) was “Not Active” throughout. The Ki entry in test [1] was “Not Active”.
In the case of `CC(=O)O[C@]1(C(C)=O)CC[C@H]2[C@@H]3C[C@H](C)C4=CC(=O)CC[C@]4(C)[C@H]3CC[C@@]21C` [MEDROXYPROGESTERONE ACETATE], the IC50 entry (in test [1]; in test [2] (insect cells); at Substance-P receptor; in test [3] (jurkat); in test [4] (hek293); in test [5] (hek293)) was “Not Active” throughout. The Ki entry in test [1] was “Not Active”.
As for `Cc1cnc(NC(=O)C2=C(O)c3ccccc3S(=O)(=O)N2C)s1` [MELOXICAM], the IC50 entry (in test [1]; in test [2] (insect cells); at Substance-P receptor; in test [3] (jurkat); in test [4] (hek293); in test [5] (hek293)) was “Not Active” in each case. In test [1], the Ki result is reported as “Not Active”.
As for `CN1C[C@H](CNC(=O)OCc2ccccc2)C[C@@H]2c3cccc4c3c(cn4C)C[C@H]21` [METERGOLINE], the IC50 entry in test [1] is “Not Active”; in test [2] (insect cells) it was “Not Active”; on Substance-P receptor it was “Not Active”; in test [3] (jurkat) it was “Not Active”; in test [4] (hek293), “Not Active”; in test [5] (read-out: IC50), 136 nM. Moreover, the Ki entry in test [1] was “Not Active”; in test [5], 67 nM.
Regarding `C[N+]1(C)[C@@H]2C[C@@H](OC(=O)[C@H](CO)c3ccccc3)C[C@H]1[C@@H]1O[C@@H]12.[Br-]` [METHSCOPOLAMINE BROMIDE], the IC50 entry (in test [1]; in test [2] (insect cells); on Substance-P receptor; in test [3] (jurkat); in test [4] (hek293); in test [5] (hek293)) was “Not Active” in each case. Moreover, the Ki entry in test [1] is reported as “Not Active”.
On to `CCN(CC)CCNC(=O)c1cc(Cl)c(N)cc1OC` [METOCLOPRAMIDE], for which the half-maximal inhibitory concentration (IC50) result (in test [1]; in test [2] (insect cells); against Substance-P receptor; in test [3] (jurkat); in test [4] (hek293); in test [5] (hek293)) was “Not Active” throughout. The Ki result in test [1] is reported as “Not Active”.
For the compound `CC[C@H](C)C(=O)O[C@H]1CCC=C2C=C[C@H](C)[C@H](CC[C@@H]3C[C@@H](O)CC(=O)O3)[C@H]21` [MEVASTATIN], the IC50 result (in test [1]; in test [2] (insect cells); against Substance-P receptor; in test [3] (jurkat); in test [4] (hek293); in test [5] (hek293)) was “Not Active” in each case. In test [1], the Ki entry was “Not Active”.
Regarding `CC#C[C@]1(O)CC[C@H]2[C@@H]3CCC4=CC(=O)CCC4=C3[C@@H](c3ccc(N(C)C)cc3)C[C@@]21C` [MIFEPRISTONE], the IC50 result in test [1] is “Not Active”; in test [2] (insect cells), “Not Active”; on Substance-P receptor it was “Not Active”; in test [3] (read-out: IC50), 26300 nM; in test [4] (hek293) it was “Not Active”; in test [5] (hek293) it was “Not Active”. In addition, the figures for the Ki entry in test [1] and in test [3] were “Not Active” and 11000 nM, respectively.
As to `Cc1[nH]c(=O)c(C#N)cc1-c1ccncc1` [MILRINONE], the IC50 result (in test [1]; in test [2] (insect cells); on Substance-P receptor; in test [3] (jurkat); in test [4] (hek293); in test [5] (hek293)) was “Not Active” in each case. Moreover, in test [1], the Ki result is “Not Active”.
With `CO[C@@]12[C@H](COC(N)=O)C3=C(C(=O)C(C)=C(N)C3=O)N1C[C@@H]1N[C@@H]12` [MITOMYCIN], the IC50 entry (in test [1]; in test [2] (insect cells); on Substance-P receptor; in test [3] (jurkat); in test [4] (hek293); in test [5] (hek293)) was “Not Active” each time. In addition, the Ki entry in test [1] is “Not Active”.
For `Cc1cc2c(s1)Nc1ccccc1N=C2N1CCN(C)CC1` [OLANZAPINE], the IC50 result (in test [2] (insect cells); against Substance-P receptor; in test [3] (jurkat); in test [4] (hek293)) was “Not Active” each time.

The record behind these values is ChEMBL document CHEMBL1909046, “DrugMatrix in vitro pharmacology data”.
